Measured values as given in ChEMBL document CHEMBL1134058, “Phospho-Azatyrosine, a less effective protein-tyrosine phosphatase substrate than phosphotyrosine” (Bioorg Med Chem Lett, 2001).
Numbered stars: 1 amine (or outer) side, 2 acyl side, 3 side chain; on linkers, the order of the positions; unused ones are H or OH. Square brackets hold non-standard residues; d marks the D form. Peptide text beside a SMILES is read from it. X1 = O=C([C@H](Cc1ccc(OP(=O)(O)O)cn1)N[*:1])[*:2]; pY = N[C@@H](Cc1ccc(OP(=O)(O)O)cc1)C(=O)O

Target: T1, Tyrosine-protein phosphatase non-receptor type 1 (Homo sapiens) (UniProt P18031)
T1 sequence (whole entry): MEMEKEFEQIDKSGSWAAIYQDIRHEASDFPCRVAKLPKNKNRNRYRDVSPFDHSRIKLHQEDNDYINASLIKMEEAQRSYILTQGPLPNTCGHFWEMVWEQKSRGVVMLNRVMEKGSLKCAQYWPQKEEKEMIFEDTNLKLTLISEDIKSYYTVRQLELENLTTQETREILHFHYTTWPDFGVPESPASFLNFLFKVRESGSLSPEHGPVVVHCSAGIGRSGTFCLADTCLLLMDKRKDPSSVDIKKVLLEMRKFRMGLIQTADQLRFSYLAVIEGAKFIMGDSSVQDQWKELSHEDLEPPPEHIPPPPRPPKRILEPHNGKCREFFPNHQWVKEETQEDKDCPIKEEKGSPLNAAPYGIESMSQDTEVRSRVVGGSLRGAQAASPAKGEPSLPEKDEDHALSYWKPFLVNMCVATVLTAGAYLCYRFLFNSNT
Assay: Catalytic turnover rate was determined.

k cat [s⁻¹]	Structure (SMILES)
68	CC(=O)N[C@@H](CC(=O)O)C(=O)N[C@@H](C)C(=O)N[C@@H](CC(=O)O)C(=O)N[C@@H](CCC(=O)O)C(=O)N[C@@H](Cc1ccc(OP(=O)(O)O)cc1)C(=O)N[C@@H](CC(C)C)C(N)=O (Ac-DADE[pY]L-NH2)
52	CC(=O)N[C@@H](CC(=O)O)C(=O)N[C@@H](C)C(=O)N[C@@H](CC(=O)O)C(=O)N[C@@H](CCC(=O)O)C(=O)N[C@@H](Cc1ccc(OP(=O)(O)O)cn1)C(=O)N[C@@H](CC(C)C)C(N)=O (Ac-DADE[X1]L-NH2)
